From US8987500B2, “4-biphenyl-substituted pyrazolidin-3,5-dione derivatives” (Bayer CropScience AG, priority 2003, dated 2015)

Columns and labels:
[1] = tested on: caterpillars of the army worm (Spodoptera frugiperda); assay: Spodoptera frugiperda test (spray treatment), Example F; assay type: in vivo; settings: maize leaf discs, 500 g/ha
Procedure: (§1) Spodoptera frugiperda Test (Spray Treatment) [table] To produce a suitable preparation of active compound, 1 part by weight of active compound is mixed with the stated amounts of solvents and emulsifier, and the concentrate is diluted with emulsifier-containing water to the desired concentration. Discs of maize leaves (Zea mays) are sprayed with a preparation of active compound of the desired concentration and, after they have dried, populated with caterpillars of the army worm (Spodoptera frugiperda). After the desired period of time, the activity in % is determined 100% means that all caterpillars have been killed; 0% means that none of the caterpillars have been killed.

[2] = tested on: green peach aphid (Myzus persicae); assay: Myzus test (spray treatment), Example D; assay type: in vivo; settings: Table D
Procedure: Myzus Test (Spray Treatment)
(§2) To produce a suitable preparation of active compound, 1 part by weight of active compound is mixed with the stated amounts of solvents and emulsifier, and the concentrate is diluted with emulsifier-containing water to the desired concentration.
Discs of Chinese cabbage (Brassica pekinensi), which are infested by all stages of the green peach aphid (Myzus persicae) are sprayed with a preparation of active compound of the desired concentration.
After the desired period of time, the activity in % is determined 100% means that all aphids have been killed; 0% means that none of the aphids have been killed.

[3] = tested on: monocotyledonous and dicotyledonous weed and crop plants; assay: Herbicidal post-emergence action, Example J; assay type: in vivo; settings: Greenhouse, 320 g a.i./ha, about 3 weeks
Procedure: Herbicidal Post-Emergence Action Seeds of monocotyledonous and dicotyledonous weed and crop plants are placed into sandy loam in woodfibre pots, covered with soil and cultivated in a greenhouse under good growth conditions. 2-3 weeks after sowing, the test plants are treated at the one-leaf stage. The test compounds formulated as wettable powders (WP) are, in various dosages with a water application rate of 600 l/ha (converted), with 0.2% of wetting agent added, sprayed onto the green parts of the plants. After the test plants have been kept in the greenhouse under optimum growth conditions for about 3 weeks, the effect of the preparations is rated visually in comparison to untreated controls (herbicidal effect in percent (%): 100% effect=plants have died, 0% effect=like control plants).

Meloidogyne incognita = assay: Meloidogyne test, Example C; assay type: in vivo; settings: Table C, 20 ppm active compound, nematicidal effect by formation of galls
Procedure: Meloidogyne Test [table] To produce a suitable preparation of active compound, 1 part by weight of active compound is mixed with the stated amounts of solvent, and the concentrate is diluted with water to the desired concentration. Containers are filled with sand, solution of active compound, Meloidogyne incognita egg/larvae suspension and lettuce seeds. The lettuce seeds germinate and the plants develop. On the roots, galls are formed. After the desired period of time, the nematicidal effect is determined in % by the formation of galls. 100% means that no galls have been found; 0% means that the number of galls on the treated plants corresponds to that of the untreated control.

Sphaerotheca fuliginea = assay: Sphaerotheca test (cucumber)/protective, Example H; assay type: in vivo; settings: Sphaerotheca fuliginea on cucumber, protective, application rate 750 g/ha, evaluation 7 days after inoculation
Procedure: Sphaerotheca Test (Cucumber)/Protective [table] To produce a suitable preparation of active compound, 1 part by weight of active compound is mixed with the stated amounts of solvent and emulsifier, and the concentrate is diluted with water to the desired concentration. To test for protective activity, young cucumber plants are sprayed with the preparation of active compound at the stated application rate. 1 day after the treatment, the plants are inoculated with a spore suspension of Sphaerotheca fuliginea. The plants are then placed in a greenhouse at 70% relative atmospheric humidity and a temperature of 23° C. Evaluation is carried out 7 days after the inoculation. 0% means an efficacy which corresponds to that of the control, whereas an efficacy of 100% means that no infection is observed.

[4] = tested on: larvae of the mustard beetle (Phaedon cochleariae); assay: Phaedon test (spray treatment), Example E; assay type: in vivo; settings: Table E
Procedure: as §1, with “Phaedon Test” for “Spodoptera frugiperda Test”, “of Chinese cabbage (Brassica pekinensis)” for “of maize leaves (Zea mays)”, “with larvae” for “with caterpillars”, “the mustard beetle (Phaedon cochleariae).” for “the army worm (Spodoptera frugiperda).”, “all beetle larvae” for “all caterpillars”, “the beetle larvae” for “the caterpillars”

[5] = tested on: greenhouse red spider mite (Tetranychus urticae); assay: Tetranychus test (OP-resistant/spray treatment), Example G; assay type: in vivo; settings: Tetranychus urticae (OP-resistant), bean leaf discs, spray treatment, 500 g/ha
Procedure: Tetranychus Test (OP-Resistant/Spray Treatment)
as §2
Discs of bean leaves (Phaseolus vulgaris) which are infested by all stages of the greenhouse red spider mite (Tetranychus urticae) are sprayed with a preparation of active compound of the desired concentration.
After the desired period of time, the activity in % is determined 100% means that all spider mites have been killed; 0% means that none of the spider mites have been killed.

[6] = tested on: larvae of the mustard beetle (Phaedon cochleariae); assay: Phaedon test (spray treatment), Example A; assay type: in vivo; settings: Table A, 500 g/ha active compound
Procedure: as §1, with “Phaedon Test” for “Spodoptera frugiperda Test”, “of Chinese cabbage (Brassica pekinensis)” for “of maize leaves (Zea mays)”, “with larvae” for “with caterpillars”, “the mustard beetle (Phaedon cochleariae).” for “the army worm (Spodoptera frugiperda).”, “all beetle larvae” for “all caterpillars”, “the beetle larvae” for “the caterpillars”

[7] = tested on: caterpillars of the army worm (Spodoptera frugiperda); assay: Spodoptera frugiperda test (spray treatment), Example B; assay type: in vivo; settings: Table B, 500 g/ha active compound
Procedure: as §1

## Cc1ccc(-c2ccc(F)cc2F)cc1-c1c(OC(=O)C(C)(C)C)n2n(c1=O)CCOCC2 [Ex. I-2-b-15]
[1]
  Kill rate in % after 7d: 100%
[2]; 500 g/ha active compound
  Kill rate in % after 5d: 100%

## Cc1ccc(-c2ccc(C(F)(F)F)cc2)cc1-c1c(OC(=O)C(C)(C)C)n2n(c1=O)CCCC2 [Ex. I-1-b-20]
[3]
  herbicidal effect in percent, Avena fatua: 80%
  herbicidal effect in percent, Lolium: 80%
  herbicidal effect in percent, Setaria: 90%

## CCOC(=O)Oc1c(-c2cc(-c3ccc(F)cc3)ccc2C)c(=O)n2n1CCOCC2 [Ex. I-2-c-6]
Meloidogyne incognita
  Effect in % after 14d: 90%
[2]; 100 g/ha active compound
  Kill rate in % after 5d: 100%

## Cc1cc(C)c(-c2c(O)n3n(c2=O)CCOCC3)c(C)c1-c1ccc(F)cc1 [Example I-2-a-32]
[2]; 500 g/ha active compound
  Kill rate in % after 5d: 90%

## Cc1ccc(-c2cc(Cl)ccc2Cl)cc1-c1c(O)n2n(c1=O)CCCC2 [Example I-1-a-12]
[3]
  herbicidal effect in percent, Avena fatua: 80%
  herbicidal effect in percent, Lolium: 70%
  herbicidal effect in percent, Setaria: 70%

## Cc1ccc(-c2ccc(Cl)cc2Cl)cc1-c1c(OC(=O)C(C)(C)C)n2n(c1=O)CCCC2 [Ex. I-1-b-11]
[1]
  Kill rate in % after 7d: 100%
[2]; 500 g/ha active compound
  Kill rate in % after 5d: 100%

## Cc1ccc(-c2ccc(C(C)C)cc2)cc1-c1c(OC(=O)C(C)(C)C)n2n(c1=O)CCCC2 [Ex. I-1-b-30]
[2]; 500 g/ha active compound
  Kill rate in % after 5d: 100%

## Cc1ccc(-c2cccc(Cl)c2)cc1-c1c(OC(=O)C(C)(C)C)n2n(c1=O)CCCC2 [Ex. I-1-b-3]
Sphaerotheca fuliginea
  Efficacy in %: 90%

## CCOC(=O)Oc1c(-c2cc(-c3ccc(F)cc3F)ccc2C)c(=O)n2n1CCCC2 [Ex. I-1-c-15]
[4]; 500 g/ha active compound
  Kill rate in % after 7d: 100%
[2]; 500 g/ha active compound
  Kill rate in % after 5d: 100%
[5]
  Kill rate in % after 5d: 100%

## Cc1ccc(-c2ccc(Cl)cc2)cc1-c1c(O)n2n(c1=O)CCCC2 [Example I-1-a-4]
[6]
  Kill rate in % after 7d: 100%

## CCOC(=O)Oc1c(-c2cc(-c3ccc(C(F)(F)F)cc3)ccc2C)c(=O)n2n1CCCC2 [Ex. I-1-c-19]
[3]
  herbicidal effect in percent, Avena fatua: 70%
  herbicidal effect in percent, Lolium: 80%
  herbicidal effect in percent, Setaria: 100%

## COc1ccccc1-c1ccc(C)c(-c2c(OC(=O)C(C)(C)C)n3n(c2=O)CCOCC3)c1 [Ex. I-2-b-21]
[2]; 500 g/ha active compound
  Kill rate in % after 5d: 100%

## Cc1ccc(-c2ccc(C(C)C)cc2)cc1-c1c(OC(=O)C(C)(C)C)n2n(c1=O)CCOCC2 [Ex. I-2-b-30]
[2]; 500 g/ha active compound
  Kill rate in % after 5d: 100%

## Cc1ccc(-c2ccc(F)c(Cl)c2)cc1-c1c(OC(=O)C(C)(C)C)n2n(c1=O)CCCC2 [Ex. I-1-b-17]
[1]
  Kill rate in % after 7d: 100%
[2]; 500 g/ha active compound
  Kill rate in % after 5d: 90%

## COc1cccc(-c2ccc(C)c(-c3c(O)n4n(c3=O)CCCC4)c2)c1 [Example I-1-a-22]
[3]; Amaranthus
  herbicidal effect in percent, Amaranthus: 70%
[3]
  herbicidal effect in percent, Lolium: 100%
  herbicidal effect in percent, Setaria: 90%

## Cc1ccc(-c2ccc(F)cc2)cc1-c1c(O)n2n(c1=O)CCCC2 [Example I-1-a-1]
Meloidogyne incognita
  Effect in % after 14d: 80%
other
  melting point: 172 °C

## Cc1ccc(-c2cc(Cl)cc(Cl)c2)cc1-c1c(OC(=O)C(C)(C)C)n2n(c1=O)CCCC2 [Ex. I-1-b-14]
[2]; 500 g/ha active compound
  Kill rate in % after 5d: 100%

## Cc1ccc(-c2ccc(Cl)c(Cl)c2)cc1-c1c(OC(=O)C(C)(C)C)n2n(c1=O)CCOCC2 [Ex. I-2-b-13]
[2]; 500 g/ha active compound
  Kill rate in % after 5d: 100%

## Cc1ccc(-c2ccc(Cl)cc2)cc1-c1c(OC(=O)C(C)C)n2n(c1=O)CCOCC2 [Ex. I-2-b-31]
[2]; 500 g/ha active compound
  Kill rate in % after 5d: 100%

## Cc1ccc(-c2ccc(F)cc2)cc1-c1c(OC(=O)C(C)(C)C)n2n(c1=O)CCCC2 [Example I-1-b-1]
Meloidogyne incognita
  Effect in % after 14d: 90%
[4]; 500 g/ha active compound
  Kill rate in % after 7d: 100%
Sphaerotheca fuliginea
  Efficacy in %: 94%

## CCOC(=O)Oc1c(-c2cc(-c3ccc(F)cc3)ccc2C)c(=O)n2n1CCCC2 [Example I-1-c-1]
[4]; 100 g/ha active compound
  Kill rate in % after 7d: 100%
[3]
  herbicidal effect in percent, Avena fatua: 90%
  herbicidal effect in percent, Lolium: 90%
  herbicidal effect in percent, Setaria: 80%
Sphaerotheca fuliginea
  Efficacy in %: 80%
[2]; 100 g/ha active compound
  Kill rate in % after 5d: 100%

## Cc1ccc(-c2ccc(Cl)cc2)cc1-c1c(OC(=O)C(C)(C)C)n2n(c1=O)CCCC2 [Ex. I-1-b-4]
[4]; 500 g/ha active compound
  Kill rate in % after 7d: 100%
[7]
  Kill rate in % after 7d: 100%
[5]
  Kill rate in % after 5d: 100%

## Cc1ccc(-c2ccc(F)cc2)cc1-c1c(OC(=O)C2CC2)n2n(c1=O)CCCC2 [Ex. I-1-b-33]
[2]; 100 g/ha active compound
  Kill rate in % after 5d: 100%

## CCOC(=O)Oc1c(-c2cc(-c3ccc(Cl)cc3)ccc2C)c(=O)n2n1CCCC2 [Ex. I-1-c-4]
[7]
  Kill rate in % after 7d: 100%
